Laboratory results taken from patent US20260191968A1, “PROTAC DEGRADERS OF MLLT1 AND/OR MLLT3” (DARK BLUE THERAPEUTICS LTD, priority 2024, published 2026).

Key:
MLLT1 = target: T1, MLLT1 (Homo sapiens, UniProt Q03111); assay: MLLT1 degradation assay in MV4-11 cells (JESS chemiluminescent detection), three concentrations, 24 h; type: cell-based; details: with respect to DMSO control
T1 construct: host or cells: MV4-11
T1 sequence (Q03111 1-559): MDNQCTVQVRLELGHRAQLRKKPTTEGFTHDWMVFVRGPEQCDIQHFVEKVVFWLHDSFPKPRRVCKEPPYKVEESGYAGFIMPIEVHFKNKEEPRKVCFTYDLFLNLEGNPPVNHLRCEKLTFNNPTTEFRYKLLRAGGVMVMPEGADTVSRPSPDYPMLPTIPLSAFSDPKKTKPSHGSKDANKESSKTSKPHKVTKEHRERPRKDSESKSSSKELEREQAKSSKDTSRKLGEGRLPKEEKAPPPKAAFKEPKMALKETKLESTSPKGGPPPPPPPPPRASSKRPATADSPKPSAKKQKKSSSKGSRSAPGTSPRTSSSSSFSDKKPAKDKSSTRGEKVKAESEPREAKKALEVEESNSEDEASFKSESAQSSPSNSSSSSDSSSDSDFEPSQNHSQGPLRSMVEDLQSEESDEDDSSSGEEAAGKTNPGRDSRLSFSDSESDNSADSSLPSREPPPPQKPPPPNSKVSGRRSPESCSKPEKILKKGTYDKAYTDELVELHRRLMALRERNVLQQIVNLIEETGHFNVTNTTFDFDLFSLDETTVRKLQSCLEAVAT
Procedure, shortened: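 MV4-11 cells treated 24 h at 37° C, 5% CO2 with 1000, 100 and 10 nM compound (0.1% DMSO final). MLLT1 quantified by automated capillary chemiluminescent immunodetection; band peak area expressed as % degradation relative to DMSO control.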

MV4-11 cells = assay: MV4-11 cellular proliferative assay, Assay Format B (CTG 2.0, 168 h); type: cell-based; details: Homo sapiens, 168 h (7 days), CTG 2.0, read-out: IC50 (MV4-11 cellular proliferative assay, Assay format B)
Procedure, shortened: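 MV4-11 cells seeded overnight in IMDM + 10% FBS, then exposed to 10-point, 3-fold dilutions from 1 uM or 100 nM top concentration (0.3% DMSO final) for 168 h at 37 °C. CTG 2.0 luminescence read; % viability vs DMSO control fitted by four-parameter logistic regression.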

MLLT1% Degradation @ 0.01 μM (MLLT1)	MLLT1% Degradation @ 0.1 μM (MLLT1)	MLLT1% Degradation @ 1 μM (MLLT1)	IC50 (MV4-11 cells) [nM]	Compound
A (Category A: A ≥ 75% degradation)	A (Category A: A ≥ 75% degradation)	A (Category A: A ≥ 75% degradation)	≤ 100	CN1CCC[C@@H]1c1[nH]c2cc(NC(=O)c3ccc(CCCC#Cc4cccc5c4CN(C4CCC(=O)NC4=O)C5=O)cc3)ncc2c1Cl (stereo partly drawn) [Example 100, N-(3-chloro-2-((R)-1-methylpyrrolidin-2-yl)-1H-pyrrolo[3,2-c]pyridin-6-yl)-4-(5-(2-(2,6-dioxopiperidin-3-yl)-1-oxoisoindolin-4-yl)pent-4-yn-1-yl)benzamide]
A (Category A: A ≥ 75% degradation)	A (Category A: A ≥ 75% degradation)	A (Category A: A ≥ 75% degradation)	≤ 100	CN1CCC[C@@H]1c1cc2cnc(NC(=O)c3ccc(CCCC#Cc4cc(F)cc5c4CN(C4CCC(=O)NC4=O)C5=O)cc3)cc2[nH]1 (stereo partly drawn) [Example 101, 4-(5-(2-(2,6-dioxopiperidin-3-yl)-6-fluoro-1-oxoisoindolin-4-yl)pent-4-yn-1-yl)-N-(2-((R)-1-methylpyrrolidin-2-yl)-1H-pyrrolo[3,2-c]pyridin-6-yl)benzamide]
A (Category A: A ≥ 75% degradation)	A (Category A: A ≥ 75% degradation)	A (Category A: A ≥ 75% degradation)	≤ 100	[2H]C([2H])([2H])N1CCC[C@@H]1c1cc2cnc(NC(=O)c3ccc(CCCC#Cc4cccc5c4CN(C4CCC(=O)NC4=O)C5=O)cc3)cc2[nH]1 (stereo partly drawn) [Example 111, 4-(5-(2-(2,6-dioxopiperidin-3-yl)-1-oxoisoindolin-4-yl)pent-4-yn-1-yl)-N-(2-((R)-1-(methyl-d3)pyrrolidin-2-yl)-1H-pyrrolo[3,2-c]pyridin-6-yl)benzamide]

Compound	MLLT1% Degradation @ 0.01 μM (MLLT1)	MLLT1% Degradation @ 0.1 μM (MLLT1)	MLLT1% Degradation @ 1 μM (MLLT1)	IC50 (MV4-11 cells) [nM]
CN1CCC[C@@H]1c1cc2cnc(NC(=O)c3ccc(C4CCN(C(=O)CC5CCN(c6cccc7c6CN(C6CCC(=O)NC6=O)C7=O)CC5)CC4)cc3)cc2[nH]1 (stereo partly drawn) [Example 107, 4-(1-(2-(1-(2-(2,6-dioxopiperidin-3-yl)-1-oxoisoindolin-4-yl)piperidin-4-yl)acetyl)piperidin-4-yl)-N-(2-((R)-1-methylpyrrolidin-2-yl)-1H-pyrrolo[3,2-c]pyridin-6-yl)benzamide]	B (Category B: 50% ≤ B < 75% degradation)	A (Category A: A ≥ 75% degradation)	A (Category A: A ≥ 75% degradation)	≤ 100
CN1CCC[C@@H]1c1cc2cnc(NC(=O)c3ccc(N4CCN(C(=O)CC5CCN(c6cccc7c6CN(C6CCC(=O)NC6=O)C7=O)CC5)CC4)nc3)cc2[nH]1 (stereo partly drawn) [Example 108, 6-(4-(2-(1-(2-(2,6-dioxopiperidin-3-yl)-1-oxoisoindolin-4-yl)piperidin-4-yl)acetyl)piperazin-1-yl)-N-(2-((R)-1-methylpyrrolidin-2-yl)-1H-pyrrolo[3,2-c]pyridin-6-yl)nicotinamide]	A (Category A: A ≥ 75% degradation)	A (Category A: A ≥ 75% degradation)	B (Category B: 50% ≤ B < 75% degradation)	≤ 100
CN1CCC[C@@H]1c1cc2cnc(NC(=O)c3ccc(N4CCC(OCc5ccc(-c6cccc7c6CN(C6CCC(=O)NC6=O)C7=O)cc5)CC4)nc3)cc2[nH]1 (stereo partly drawn) [Example 109, 6-(4-((4-(2-(2,6-dioxopiperidin-3-yl)-1-oxoisoindolin-4-yl)benzyl)oxy)piperidin-1-yl)-N-(2-((R)-1-methylpyrrolidin-2-yl)-1H-pyrrolo[3,2-c]pyridin-6-yl)nicotinamide]	B (Category B: 50% ≤ B < 75% degradation)	A (Category A: A ≥ 75% degradation)	A (Category A: A ≥ 75% degradation)	≤ 100
